The results in this text go back to patent US11596662B2, “Passion flower seed extract, and cosmetic, pharmaceutical or dermatological compositions containing same” (priority 2015, dated 2023).

The inhibition is the change of the read-out against control, counted positive when it falls.

In assay [1] the test system is keratinocytes treated with 9 μg/ml BaP. Kind of assay: ROS production in keratinocytes treated with 9 μg/ml BaP (H2DCF-DA probe). It counts as cell-based, human. The settings on record: 24 hours, then 9 μg/ml BaP 20 minutes. The protocol: The keratinocytes were then stimulated with 9 μg/ml benzo-α-pyrene (BaP) for 20 minutes. ROS production was evaluated by measurement of fluorescence.
(§1) The significance of the results was verified by Student's t-test.

For a further assay, the system named is haem oxygenase 1 (HMOX1). Kind of assay: HMOX1 production by fibroblasts (ELISA). It counts as cell-based, human. Conditions: 24 hours. On the procedure: An extract of the invention was analysed on the protein expression of haem oxygenase.
Normal human fibroblasts were treated for 24 hours with a 0.002% and a 0.005% (w/v) extract of the invention, as obtained in Example 1, and with 5 and 10 μM curcumin (reference hormetin).
At the end of the treatment, intracellular haem oxygenase 1 (or HMOX1 or H01) was quantified using an ELISA technique. Staining, proportional to the quantity of the marker of interest, was measured by reading the optical density (OD) at 450 nm, and the value obtained was related to the quantity of cells obtained by a protein assay using the BC Assay (Interchim).
The results were statistically analysed by one-way ANOVA followed by Dunnett's test (GraphPad PRISM version 5.02 software, GraphPad Software, San Diego, Calif., USA).
(In general: In an ELISA, binding on a coated surface is turned into a signal by an enzyme label.)

The subject of a further assay is MMP1. As to the kind of experiment: IR-induced production of MMP1 in normal human fibroblasts (ELISA). The settings on record: 10^−7 M, 48 hours after IR 0.57 kJ/cm^2. The format is cell-based. The protocol:
The ability of an extract of the invention to protect dermal cells from the harmful effects of IR rays was studied by evaluating MMP1 production.
Normal human fibroblasts (NHF) were incubated in the presence of a 0.001% extract of the invention, as obtained in Example 1, or of 10^−7 M dexamethasone (reference anti-inflammatory) for 48 hours following 1 hour of infrared irradiation (0.57 kJ/cm^2).
After incubation, the supernatants are collected in order to assay released MMP1 (ELISA Kit, R&D Systems).
as §1

In another assay the test system is prostaglandin E2 (PGE2). Kind of assay: PGE2 production in PMA-treated keratinocytes. The format is cell-based, human. The settings on record: 10^−6 M, 24 hours pretreatment, then PMA 0.1 μg/ml 24 hours. The protocol:
The anti-inflammatory protection of an extract of the invention with respect to a chemical molecule, PMA, was studied by analysis of the release of prostaglandin 2 (PGE2).
Normal human keratinocytes were pretreated with a 0.002% and a 0.005% extract of the invention, as obtained in Example 1, and with 10^−6 M indomethacin (anti-inflammatory control of the prostaglandin pathway) for 24 hours at 37° C., in order to be able to measure a level of protection of the active agent with respect to inflammation by 0.1 μg/ml PMA (phorbol 12-myristate 13-acetate) used on these same cell monolayers for a further 24 hours. At the end of the treatment, the supernatants are collected and an assay of prostaglandin E2 (PGE2; R&D Systems) is performed. Staining, proportional to the amount of PGE2, was measured by reading the optical density (OD) at 450 nm.
as §1

The next assay concerns Nrf2. Kind of assay: Nrf2 activity in ARE-luciferase-transfected HaCaT keratinocytes. Conditions: 6 hours. It counts as cell-based. On the procedure:
The effect of the extract of the invention was evaluated with respect to activation of translocation of Nrf2, precursor of the cascade responsible for the hormetic response and for certain detoxification pathways of the organism.
ARE-luciferase-transfected HaCaT keratinocytes, containing the antioxidant response element (ARE) plasmid NQO1, which is a specific plasmid for activation of Nrf2 and luciferase (reporter gene), were treated for 6 hours at 37° C. with an extract of the invention, as obtained in Example 1, at concentrations ranging from 0.01% to 0.0005% (w/v) and with a positive reference, 20 μM tert-butylhydroquinone.
At the end of the treatment, the cell monolayers are lysed, luciferase activity is assayed using a “Luciferase Assay Kit” from PROMEGA, and the protein content of each lysate is assayed using the Bradford method (BioRad).

Assay [2] relates to H2O2-treated keratinocytes. Kind of assay: ROS production in H2O2-treated keratinocytes (H2DCF-DA probe). It counts as cell-based, human. The settings on record: 24 hours, then 100 μM H2O2 20 minutes. The protocol:
The antioxidant potential of an extract of the invention with respect to H2O2 induction of reactive oxygen species was studied.
Normal human keratinocytes were incubated for 24 hours in the presence of a 0.002%, a 0.005% and a 0.01% (w/v) extract of the invention, as obtained in Example 1, or of 500 μM vitamin C and 10 μM quercetin (reference antioxidants) before incorporation of the H2DCF-DA probe (incubation for 60 minutes).
The keratinocytes were then stimulated with 100 μM hydrogen peroxide (H2O2) for 20 minutes and the production of reactive oxygen species (ROS) was evaluated by measurement of fluorescence.
(§2) The results were statistically analysed by one-way ANOVA followed by Tukey's test (GraphPad PRISM version 5.02 software, GraphPad Software, San Diego, Calif., USA).

Assay [3] relates to keratinocytes treated by UV at 2400 J/m^2. Kind of assay: ROS production in keratinocytes treated by UV at 2400 J/m^2. It counts as cell-based, human. The settings on record: 500 μM. On the procedure:
The antioxidant potential of an extract of the invention with respect to UV-irradiation-induced reactive oxygen species (ROS) was studied.
Normal human keratinocytes were incubated for 24 hours in the presence of a 0.001% and a 0.005% (w/v) extract of the invention, as obtained in Example 1, or of 500 μM vitamin C (reference antioxidant), before incorporation of the H2DCF-DA probe (incubation for 1 hour).
The keratinocytes were then stimulated with UV at 2400 J/m^2 (2000 J/m^2 UVB and 400 J/m^2 UVA) then returned to culture in the presence of a 0.001% and a 0.005% (w/v) extract of the invention, as obtained in Example 1, or of 500 μM vitamin C, for 15 minutes at 37° C.
The production of reactive oxygen species (ROS) was evaluated by measurement of fluorescence and the value obtained was normalized to the quantity of cells obtained using an MTT cell viability assay.
as §2

In the case of `COc1cc(/C=C/C(=O)CC(=O)/C=C/c2ccc(O)c(OC)c2)ccc1O` [Curcumin, curcumin], in assay [1] (10 μM), the “ROS % change (Significance)” value was −16%. Besides, in assay [1] (10 μM), the “ROS (fluorescence units)” value is on record as 14065 ± 1231 fluorescence units. The “HMOX1 (ng/ml on quantity of cells)” value in the assay with haem oxygenase 1 (HMOX1) (5 μM) is 0.060 ± 0.002 ng/ml on quantity of cells; with haem oxygenase 1 (HMOX1) (10 μM) it was 0.105 ± 0.006 ng/ml on quantity of cells.
With `C[C@@H]1C[C@H]2[C@@H]3CCC4=CC(=O)C=C[C@]4(C)[C@@]3(F)[C@@H](O)C[C@]2(C)[C@@]1(O)C(=O)CO` [Dexamethasone, dexamethasone], in the assay with MMP1, the “% protection (IR-induced MMP1)” value came out at 102% and the “MMP1” value came out at 9.3 ng/mL.
`COc1ccc2c(c1)c(CC(=O)O)c(C)n2C(=O)c1ccc(Cl)cc1` [Indomethacin, indomethacin]: the “PGE2” value in the assay on prostaglandin E2 (PGE2) was 52 ± 8 pg/mL. Moreover, the inhibition at 1 µM in the assay on prostaglandin E2 (PGE2) (Homo sapiens, Keratinocyte) is 100%.
With `CC(C)(C)c1cc(O)ccc1O` [Tert-butylhydroquinone, tert-butylhydroquinone], the “Nrf2 activity (mean normalized RLU/μg of proteins)” value with Nrf2 (20 μM) is 23216.4 RLU/μg of proteins. Also, in the assay with Nrf2 (20 μM (positive reference = 100)), the “Nrf2 Activation (%)” value was determined as 100%.
For `O=c1c(O)c(-c2ccc(O)c(O)c2)oc2cc(O)cc(O)c12` [quercetin], the “ROS % change (Significance)” value in assay [1] (10 μM) is −32%; in assay [2] (10 μM), −67%. Also, the “ROS (fluorescence units)” value is listed as 17140 ± 1930 fluorescence units in assay [1] (10 μM) and 14367.847 ± 1790.753 fluorescence units in assay [2] (10 μM).
`Oc1ccc(C=Cc2cc(O)cc(O)c2)cc1` [resveratrol]: in assay [1] (10 μM), the “ROS % change (Significance)” value is on record as −21% and the “ROS (fluorescence units)” value was determined as 20357 ± 503 fluorescence units.
For `O=C1O[C@H]([C@@H](O)CO)C(O)=C1O` [vitamin C], in assay [3] (UV 2400 J/m^2), the “ROS (fluorescence intensity/MTT)” value is listed as 26005 ± 3723 fluorescence intensity/MTT. Further, the ROS % change in assay [3] (UV 2400 J/m^2, vs control with UVs) is −40%. Moreover, the “ROS % change (Significance)” value in assay [1] (500 μM) was −16%; in assay [2] (500 μM), −51%. Besides, the “ROS (fluorescence units)” value in assay [1] (500 μM) stood at 14089 ± 1719 fluorescence units; in assay [2] (500 μM) it was 21719.018 ± 3174.253 fluorescence units.
